Results published in ChEMBL document CHEMBL3745616, “Identification of a potent inhibitor targeting human lactate dehydrogenase A and its metabolic modulation for cancer cell line” (Bioorg Med Chem Lett, 2016).
The source made the active and inactive calls. The rule behind the calls is not given here.

Experiments:
[1] = biological target: L-lactate dehydrogenase A chain (Homo sapiens, UniProt P00338); experiment: Inhibition of human LDHA using pyruvate as substrate assessed as disappearance of NADH preincubated for 10 mins followed by substrate addition every 2.5 secs for 10 mins by fluorescence analysis
MCF7 [2] = experiment: Cytotoxicity against human MCF7 cells after 72 hrs by MTT assay; format: functional, cell-based; settings: MCF7, 72 h
MCF7 [3] = experiment: Decrease in proton production rate in human MCF7 cells at 2 to 10 uM after 12 hrs by extracellular flux analysis; format: functional, cell-based
MCF7 [4] = experiment: Reduction in lactate production in human MCF7 cells at 5 uM after 12 hrs; format: functional, cell-based
MCF7 [5] = experiment: Decrease in extracellular acidfication rate in human MCF7 cells at 2 to 10 uM after 12 hrs by extracellular flux analysis; format: functional, cell-based
MCF7 [6] = experiment: Increase in oxygen consumption rate in human MCF7 cells at 2 to 10 uM after 12 hrs by extracellular flux analysis; format: functional, cell-based
MCF7 [7] = experiment: Reduction in lactate production in human MCF7 cells at 5 to 10 uM after 12 hrs; format: functional, cell-based
MCF7 [8] = experiment: Reduction in lactate production in human MCF7 cells at 10 uM after 12 hrs; format: functional, cell-based

IC50 [1] [µM]	Structure (SMILES)	IC50 (MCF7 [2]) [µM]	inhibition (MCF7 [3])	Activity (MCF7 [4])	inhibition (MCF7 [5])	Activity (MCF7 [6])	Activity (MCF7 [7])	Activity (MCF7 [8])
7.8	Cc1nc(C)c(C(=O)OC[C@H]2CCCO2)c(-c2ccccc2C(F)(F)F)c1C(=O)O	10.8	–	–	–	–	–	–
0.25	Cc1ccccc1OC[C@H](O)Cn1c(NCc2ccccc2)nc2c1c(=O)n(C)c(=O)n2C	1.54	Active	Active	Active	Active	Active	–
4.8	COc1ncc(-c2ccc3c(Nc4cccc(C(=O)O)c4)c(S(N)(=O)=O)cnc3c2)c(OC)n1	> 30	–	–	–	–	–	Active
2.3	Cn1c(=O)c2c(nc(NCc3ccccc3)n2C[C@@H](O)COc2ccc(Cl)cc2)n(C)c1=O	3.5	–	–	–	–	–	–
3.5	CCCC(=O)N(c1ccc2oc(C)c(C(=O)OCC)c2c1)S(=O)(=O)c1ccc(OC)cc1	> 30	–	–	–	–	–	–
